Reference: patent publication US9512156B2, “Carbon monoxide releasing rhenium compounds for medical use” (UNIVERSITY OF ZURICH, priority 2010, dated 2016)

Legend:
[1] = test system: neonatal rat ventricular cardiomyocytes (NRCs); conditions: Zobi et al., Inorg. Chem. 2010, 49, 7313-7322; cited from earlier work
[2] = test system: horse skeletal myoglobin (Mb); assay: Detection of CO release using the myoglobin assay (conversion of Mb to MbCO); type: biochemical; conditions: pH 7.4, 25° C.
Protocol: Changes in the Mb spectra were recorded over time at 25° C. The methanol or DMSO content of the solution never exceeded 0.5%. […] The MbCO concentration was plotted over time and directly related to the equivalents of CO released from the compounds. The half-life of CO release from the Re compounds at different pH's was then estimated from the graphs. Control experiments were run under identical conditions but without addition of the metal complexes. All manipulations were performed under a pure N2 atmosphere in a wet box.
The final methanol or DMSO content of the buffered aqueous solution never exceeded 0.5%. The conversion of Mb to carbon monoxide myoglobin (MbCO) was followed over time by measuring the changes in the absorption spectra of the Q band region of this protein at pH 7.4, 6.3 and 5.8 after addition of the Re^II complex.
The amount of MbCO formed over time after addition of the Re complex to the Mb solution was calculated according to the known extinction coefficients. The MbCO concentration was directly related to the equivalents of CO released from the compounds and these were plotted as a function of time.

[3] = test system: intracellular reduced glutathione (GSH) in NRCs; assay: Intracellular reduced glutathione (GSH) in NRCs after ischemia and 10 min of reperfusion; type: cell-based, rat; conditions: 30 μM, 10 min after the onset of reperfusion
Protocol: FIG. 9. Regulation of oxygen availability and the intracellular reduced glutathione content by Re-CORMs. A: Reduction in oxygen content in the incubation medium within 10 min after addition of 60 μM of 2, 6 and B12-CORM-2; N=6-8. Given are means±SEM. B: Intracellular reduced glutathione (GSH) content in NRCs exposed to 16 h of ischemia and 10 min of reperfusion in the presence or absence of CO-RMs. N=4 Data are means±SEM.
Oxidative stress triggered by acute hyperoxygenation is a hallmark of reperfusion injury. Based on the findings presented in FIG. 9A selected CORMs may be viewed as oxygen scavengers which, when applied early on during reperfusion, may reduce the cellular oxidative damage. To test this hypothesis intracellular reduced glutathione (GSH) levels were determined in cells 10 min after the “onset of reperfusion” in the presence or absence of 30 μM 2, 6 and B12-CORM-2. […] (FIG. 9B). This acute antioxidative effect of 2 most likely reflects the ability of the intermediates formed upon CO release to react with oxygen forming ReO4^−.

[4] = test system: neonatal rat cardiomyocyte (NRC); assay: Cytotoxicity towards neonatal rat cardiomyocytes under normal conditions; type: cell-based; conditions: normal physiological conditions, up to a tested concentration of 120 μM
Protocol: B12-CORM-2 and 4 (Scheme 3) were tested for their cytotoxic and their cytoprotective effects using the neonatal rat cardiomyocyte (NRC) cell-based model of ischemia-reperfusion injury (I/R) as previously described (Zobi et al., Inorg. Chem. 2010, 49, 7313-7322). The membrane-impermeable ReII-CORMs studied so far were non-toxic in the micromolar concentration range. To test for the possible uptake of B12-CO-RMs by cells incubation of NRCs with 30 μM of B12-CORM-2 and 4 was performed and cell culture medium samples were collected over 180 min of incubation. […] The fraction of dead cells tended to decrease in the presence of CORMs, but, due to the high variability, the differences were not statistically significant (2.7±1.7% in control vs 1.1±0.3 and 1.0±0.2 in the presence of B12-CORM-2 and B12-CORM-4 respectively).

[5] = Deoxygenation of cell-free incubation medium; conditions: within minutes after administration, dose-dependent (FIG. 9A: 60 μM, 10 min)
Text: Therefore, the effect of the three selected CO-RMs on oxygen consumption by NRCs was investigated.

[6] = Solubility in water and organic solvents; type: physicochemical
[7] = Stability under aerobic conditions (solid, solution); type: physicochemical

SMILES: CC[N+](CC)(CC)CC.CC[N+](CC)(CC)CC.[Br][Re-2]([Br])([Br])[Br].[C-]#[O+].[C-]#[O+] [Compound 2, [Et4N]2[Re^IIBr4(CO)2]]
- cytoprotective effects against I/R injury [1]: substantial cytoprotective effects
- time to saturation of Mb with CO liberated from the compound [2]: ≤ 30 min
- intracellular reduced glutathione (GSH) levels [3]: increase
- cytotoxicity towards NRCs [4]: no cytotoxicity
- deoxygenation of the cell-free medium [5]: resulted in deoxygenation
- solubility in water [6]: well soluble in water

SMILES: Cc1ccncc1.Cc1ccncc1.[Br][Re][Br].[C-]#[O+].[C-]#[O+] [Compound 5, [ReBr2(CO)2(4-pic)2]]
- stability as solids under aerobic conditions [7]: indefinitely stable

SMILES: [Br][Re][Br].[C-]#[O+].[C-]#[O+].c1ccc2[nH]cnc2c1.c1ccc2[nH]cnc2c1 [Compound 4, [ReBr2(CO)2(BzIm)2]]
- stability as solids under aerobic conditions [7]: indefinitely stable

SMILES: Cn1ccnc1.Cn1ccnc1.[Br][Re][Br].[C-]#[O+].[C-]#[O+] [Compound 3, [ReBr2(CO)2(MeIm)2]]
- stability as solids under aerobic conditions [7]: slowly decomposed over time

SMILES: [Br][Re]([Br])([n+]1cc[nH]c1)[n+]1cc[nH]c1.[C-]#[O+].[C-]#[O+] [Compound 6, cis-trans-[Re^II(CO)2Br2(Im)2]]
- cytoprotective effects against I/R injury [1]: substantial cytoprotective effects
- cytotoxicity towards NRCs [4]: no cytotoxicity
